Reference: patent US10316017B2, “COT modulators and methods of use thereof” (Gilead Sciences, Inc., priority 2015, dated 2019)

Assays:
[1] = system: TNFα production in LPS-stimulated human monocytes; test: Cot Monocyte TNFα Cell Based Assay; conditions: Homo sapiens, Monocyte, TNFα in LPS-stimulated human monocytes; read-out: EC50 TNF
In short: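 Percent-of-control values derive from TR-FRET ratios of TNFα in spun-down media, referenced to unstimulated and LPS-stimulated wells. Exposure: 1 h compound preincubation, then 50 pg/ml LPS for 4 h, both at 37 °C, with 0.5% final DMSO.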

[2] = target: T1, human Cot catalytic domain (30-397 amino acids) (Homo sapiens, UniProt P41279); test: High Throughput Cot Biochemical Assay (KinEASE TR-FRET); conditions: Cot biochemical HTRF (KinEASE TR-FRET) assay; read-out: IC50 HTRF
T1 construct: Purified recombinant human Cot catalytic domain (30-397 amino acids) was purchased from Cama Biosciences; purchased Cama Biosciences (so in the source)
In short: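 Phosphorylation of 1 μM XL665-STK3 peptide by 5 nM Cot catalytic domain was measured by time-resolved FRET using a europium […] antibody. ATP was 400 μM; buffer was 10 mM MOPS pH 7.0 with Mg2+ and DTT.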

T1 sequence (P41279 30-397): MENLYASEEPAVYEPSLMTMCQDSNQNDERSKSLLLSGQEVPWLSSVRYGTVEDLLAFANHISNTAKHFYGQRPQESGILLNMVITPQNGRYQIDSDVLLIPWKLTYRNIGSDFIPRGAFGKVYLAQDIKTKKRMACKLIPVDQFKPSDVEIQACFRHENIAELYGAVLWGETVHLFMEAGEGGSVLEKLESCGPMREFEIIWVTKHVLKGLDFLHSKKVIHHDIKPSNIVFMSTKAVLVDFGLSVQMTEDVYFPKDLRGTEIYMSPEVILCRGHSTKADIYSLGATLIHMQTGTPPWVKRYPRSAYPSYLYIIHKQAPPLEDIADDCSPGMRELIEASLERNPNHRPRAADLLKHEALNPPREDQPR

| Structure (SMILES) | EC50 [1] | IC50 [2] |
| --- | --- | --- |
| CC(C)(C)N1CCC(n2cc([C@@H](Nc3cc(Cl)c4ncc(C#N)c(N[C@H]5CCCOC5)c4c3)c3ccccc3)nn2)CC1 [Example 539, 6-(((S)-(1-(1-(tert-butyl)piperidin-4-yl)-1H-1,2,3-triazol-4-yl)(phenyl)methyl)amino)-8-chloro-4-(((S)-tetrahydro-2H-pyran-3-yl)amino)quinoline-3-carbonitrile] | 3070 nM | 337 nM |
| CC(C)(C)N1CCC(n2cc([C@@H](Nc3cc(Cl)c4ncc(C#N)c(N[C@@H]5CCCOC5)c4c3)c3ccccc3)nn2)CC1 [Example 540, 6-(((S)-(1-(1-(tert-butyl)piperidin-4-yl)-1H-1,2,3-triazol-4-yl)(phenyl)methyl)amino)-8-chloro-4-(((R)-tetrahydro-2H-pyran-3-yl)amino) quinoline-3-carbonitrile] | 5150 nM | 404 nM |
| CC(C)n1cc([C@@H](Nc2cc(Cl)c3ncc(C#N)c(NC4CCN(C)CC4)c3c2)c2ccccc2)nn1 [Example 541, (S)-8-chloro-6-(((1-isopropyl-1H-1,2,3-triazol-4-yl)(phenyl)methyl)amino)-4-((1-methylpiperidin-4-yl)amino)quinoline-3-carbonitrile] | > 10000 nM | 7310 nM |
| CC(C)n1cc([C@@H](Nc2cc(Cl)c3ncc(C#N)c(NCCCN(C)C)c3c2)c2ccccc2)nn1 [Example 542, (S)-8-chloro-4-((3-(dimethylamino)propyl)amino)-6-(((1-isopropyl-1H-1,2,3-triazol-4-yl)(phenyl)methyl)amino) quinoline-3-carbonitrile] | > 10000 nM | > 10000 nM |
| CC(C)(C)CNc1c(C#N)cnc2c(Cl)cc(N[C@@H](c3ccccc3)c3cn(C4CCN(C(C)(C)C)CC4)nn3)cc12 [Example 543, (S)-6-(((1-(1-(tert-butyl)piperidin-4-yl)-1H-1,2,3-triazol-4-yl)(phenyl)methyl)amino)-8-chloro-4-(neopentylamino)quinoline-3-carbonitrile] | 51 nM | 7 nM |
| N#Cc1cnc2c(Cl)cc(N[C@@H](c3ccccc3)c3cn(CC4(N5CCCC5)COC4)nn3)cc2c1Nc1ccc(F)c(Cl)c1 [Example 544] | 1190 nM | 94 nM |
| N#Cc1cnc2c(Cl)cc(N[C@@H](c3ccccc3)c3cn(CCCN4CCCC4)nn3)cc2c1Nc1ccc(F)c(Cl)c1 [Example 545, (S)-8-chloro-4-((3-chloro-4-fluorophenyl)amino)-6-((phenyl (1-(3-(pyrrolidin-1-yl)propyl)-1H-1,2,3-triazol-4-yl)methyl)amino)quinoline-3-carbonitrile] | 88 nM | 3 nM |
| N#Cc1cnc2c(Cl)cc(N[C@@H](c3ccccc3)c3cn(CCN4CCCC4)nn3)cc2c1Nc1ccc(F)c(Cl)c1 [Example 546, (S)-8-chloro-4-((3-chloro-4-fluorophenyl)amino)-6-((phenyl (1-(2-(pyrrolidin-1-yl)ethyl)-1H-1,2,3-triazol-4-yl)methyl)amino)quinoline-3-carbonitrile] | 200 nM | 8 nM |
| CC(C)n1cc([C@@H](Nc2cc(Cl)c3ncc(C#N)c(Nc4ccc(F)c(Cl)c4)c3c2)c2cccc(N3CCCCC3=O)c2)nn1 [Example 547, (S)-8-chloro-4-((3-chloro-4-fluorophenyl)amino)-6-(((1-isopropyl-1H-1,2,3-triazol-4-yl) (3-(2-oxopiperidin-1-yl)phenyl)methyl)amino) quinoline-3-carbonitrile] | 508 nM | 2 nM |
| CC(C)(C)N1CCC(n2cc([C@@H](Nc3cc(Cl)c4ncc(C#N)c(Nc5ccc(F)c(Cl)c5)c4c3)c3cccc(N4CCCCC4=O)c3)nn2)CC1 [Example 548, (S)-6-(((1-(1-(tert-butyl)piperidin-4-yl)-1H-1,2,3-triazol-4-yl)(3-(2-oxopiperidin-1-yl)phenyl)methyl)amino)-8-chloro-4-((3-chloro-4-fluorophenyl)amino)quinoline-3-carbonitrile] | 40 nM | 1 nM |
| CC(C)n1cc([C@@H](Nc2cc(Cl)c3ncc(C#N)c(Nc4ccc(F)c(Cl)c4)c3c2)c2cccc(N3CCCC3=O)c2)nn1 [Example 549, (S)-8-chloro-4-((3-chloro-4-fluorophenyl)amino)-6-(((1-isopropyl-1H-1,2,3-triazol-4-yl) (3-(2-oxopyrrolidin-1-yl)phenyl)methyl)amino) quinoline-3-carbonitrile] | 650 nM | 3 nM |
| CC(C)(C)N1CCC(n2cc([C@@H](Nc3cc(Cl)c4ncc(C#N)c(Nc5ccc(F)c(Cl)c5)c4c3)c3cccc(N4CCCC4=O)c3)nn2)CC1 [Example 550, (S)-6-(((1-(1-(tert-butyl)piperidin-4-yl)-1H-1,2,3-triazol-4-yl)(3-(2-oxopyrrolidin-1-yl)phenyl)methyl)amino)-8-chloro-4-((3-chloro-4-fluorophenyl)amino)quinoline-3-carbonitrile] | 115 nM | 1 nM |
| CC(C)n1cc([C@@H](Nc2cc(Cl)c3ncc(C#N)c(Nc4ccc(F)c(Cl)c4)c3c2)c2cccc(N3CCC3=O)c2)nn1 [Example 551, (S)-8-chloro-4-((3-chloro-4-fluorophenyl)amino)-6-(((1-isopropyl-1H-1,2,3-triazol-4-yl)(3-(2-oxoazetidin-1-yl)phenyl)methyl)amino)quinoline-3-carbonitrile] | 475 nM | 5 nM |
| CC(C)(C)N1CCC(n2cc([C@@H](Nc3cc(Cl)c4ncc(C#N)c(Nc5ccc(F)c(Cl)c5)c4c3)c3cccc(N4CCC4=O)c3)nn2)CC1 [Example 552, (S)-6-(((1-(1-(tert-butyl)piperidin-4-yl)-1H-1,2,3-triazol-4-yl)(3-(2-oxoazetidin-1-yl)phenyl)methyl)amino)-8-chloro-4-((3-chloro-4-fluorophenyl)amino)quinoline-3-carbonitrile] | 135 nM | 5 nM |
| CC(C)[C@@H](Nc1c(C#N)cnc2c(Cl)cc(N[C@@H](c3ccccc3)c3cn(C4CCN(C(C)(C)C)CC4)nn3)cc12)c1ccccc1 [Example 553, 6-(((S)-(1-(1-(tert-butyl)piperidin-4-yl)-1H-1,2,3-triazol-4-yl)(phenyl)methyl)amino)-8-chloro-4-(((R)-2-methyl-1-phenylpropyl)amino)quinoline-3-carbonitrile] | 423 nM | 10 nM |
| COCCNc1c(C#N)cnc2c(Cl)cc(N[C@@H](c3ccccc3)c3cn(C4CCN(C(C)(C)C)CC4)nn3)cc12 [Example 554, (S)-6-(((1-(1-(tert-butyl)piperidin-4-yl)-1H-1,2,3-triazol-4-yl)(phenyl)methyl)amino)-8-chloro-4-((2-methoxyethyl)amino)quinoline-3-carbonitrile] | 8250 nM | 1300 nM |
| CC(C)(O)CNc1c(C#N)cnc2c(Cl)cc(N[C@@H](c3ccccc3)c3cn(C4CCN(C(C)(C)C)CC4)nn3)cc12 [Example 555, (S)-6-(((1-(1-(tert-butyl)piperidin-4-yl)-1H-1,2,3-triazol-4-yl)(phenyl)methyl)amino)-8-chloro-4-((2-hydroxy-2-methylpropyl)amino)quinoline-3-carbonitrile] | 537 nM | 183 nM |
| COC[C@@H](C)Nc1c(C#N)cnc2c(Cl)cc(N[C@@H](c3ccccc3)c3cn(C4CCN(C(C)(C)C)CC4)nn3)cc12 [Example 556, 6-(((S)-(1-(1-(tert-butyl)piperidin-4-yl)-1H-1,2,3-triazol-4-yl)(phenyl)methyl)amino)-8-chloro-4-(((R)-1-methoxypropan-2-yl)amino) quinoline-3-carbonitrile] | > 10000 nM | 725 nM |
| COC[C@H](C)Nc1c(C#N)cnc2c(Cl)cc(N[C@@H](c3ccccc3)c3cn(C4CCN(C(C)(C)C)CC4)nn3)cc12 [Example 557, 6-(((S)-(1-(1-(tert-butyl)piperidin-4-yl)-1H-1,2,3-triazol-4-yl)(phenyl)methyl)amino)-8-chloro-4-(((S)-1-methoxypropan-2-yl)amino)quinoline-3-carbonitrile] | > 10000 nM | 999 nM |
| CCC[C@@H](Nc1c(C#N)cnc2c(Cl)cc(N[C@@H](c3ccccc3)c3cn(C4CCN(C(C)(C)C)CC4)nn3)cc12)c1ccccc1 [Example 558, 6-(((S)-(1-(1-(tert-butyl)piperidin-4-yl)-1H-1,2,3-triazol-4-yl)(phenyl)methyl)amino)-8-chloro-4-(((R)-1-phenylbutyl)amino)quinoline-3-carbonitrile] | 199 nM | 11 nM |
| CC[C@@H](Nc1c(C#N)cnc2c(Cl)cc(N[C@@H](c3cccc(C(=O)N4CC(OC)C4)c3)c3c[nH]nn3)cc12)c1ccccc1 [Example 559, 8-chloro-6-(((S)-(3-(3-methoxyazetidine-1-carbonyl)phenyl)(1H-1,2,3-triazol-4-yl)methyl)amino)-4-(((R)-1-phenylpropyl)amino)quinoline-3-carbonitrile] | 6050 nM | 14 nM |
| CC[C@@H](Nc1c(C#N)cnc2c(Cl)cc(N[C@@H](c3cccc(C(=O)N4CC(O)C4)c3)c3c[nH]nn3)cc12)c1ccccc1 [Example 560] | 8830 nM | 3 nM |
| CC[C@@H](Nc1c(C#N)cnc2c(Cl)cc(N[C@@H](c3cccc(C(=O)N4CC(F)(F)C4)c3)c3c[nH]nn3)cc12)c1ccccc1 [Example 561, 8-chloro-6-(((S)-(3-(3,3-difluoroazetidine-1-carbonyl)phenyl)(1H-1,2,3-triazol-4-yl)methyl)amino)-4-(((R)-1-phenylpropyl)amino)quinoline-3-carbonitrile] | 1150 nM | 6 nM |
